Experiment [1] relates to E. coli E01292 strain. Kind of experiment: Effect on E. coli-infected model (mouse survival). In kind it is in vivo. The note with it: for survival number / survival rate %: male ICR mice, 10 per group, 4 days after inoculation. How it is done: Twelve mg of riboflavin sodium phosphate (FMN-Na, JP grade) was dissolved in 40 ml of physiological saline and then added and mixed with 480 mg of sodium hydrosulfite to produce leucoflavin phosphate (FMN-H2).
Male mice (Slc: ICR, 8-week old) (10 mice per each test group) was administered intraperitoneally with each of riboflavin sodium phosphate (dosage: 12.5, 25, 50 and 100 mg/kg in dosage volumes of 0.125, 0.25, 0.5 and 1 ml, respectively) and leucoflavin phosphate (dosage: 1.25, 2.5, 5 and 10 mg/kg in dosage volumes of 0.125, 0.25, 0.5 and 1 ml, respectively) which had been dissolved in physiological saline and sterilized by filtration. Twenty-four hours after the administration, E. coli E01292 strain was inoculated subcutaneously at a dose of 5.3×10^7 CFU/mouse (suspended in 0.2 ml of physiological saline), and the survival rate was determined 4 days after the inoculation. In the control group, 1.0 ml of physiological saline was administered intraperitoneally instead of the drugs. The determination of the medicinal efficacy was conducted by χ^2 test.

Experiment [2] has as its system Staphylococcus aureus BO-72 strain. The experiment is described as follows: Effect on Staphylococcus aureus-infected model (mouse survival). In kind it is in vivo. The note with it: for survival number / survival rate %: male ICR mice, 10 per group, 10 days after inoculation. Here is the method: (§1) Riboflavin sodium phosphate (FMN-Na, JP grade) and leucoflavin sodium phosphate (FMN-H2) prepared in Example 1 were used.
Male mice (Slc: ICR, 8-week old) (10 mice per each test group) was administered intraperitoneally with each of riboflavin sodium phosphate (dosage: 25, 50 and 100 mg/kg in dosage volumes of 0.25, 0.5 and 1 ml, respectively) and leucoflavin phosphate (dosage: 2.5, 5 and 10 mg/kg in dosage volumes of 0.25, 0.5 and 1 ml, respectively) which had been dissolved in physiological saline and sterilized by filtration. Twenty-four hours after the administration, Staphylococcus aureus BO-72 strain was administered intravenously at a dose of 8.7×10^7 CFU/mouse (suspended in 0.2 ml of physiological saline), and the survival rate was determined 10 days after the inoculation. In the control group, 1.0 ml of physiological saline was administered intraperitoneally instead of the drugs. The determination of the medicinal efficacy was conducted by χ^2 test.

Experiment [3] can be described thus: Effect on endotoxin shock model (LPS, mouse survival). The note with it: for survival number / survival rate %: male ICR mice, 10 per group, 4 days after administration. In kind it is in vivo, mice. How it is done:
as §1
Male mice (Slc: ICR, 6-week old) (10 mice per each test group) was administered intraperitoneally with lipopolysaccharide from E. coli serum type 0111-B4 (Sigma; abbreviated as “LPS” hereinbelow) at a dose of 15 mg/kg.
Six hours after the administration, each of riboflavin sodium phosphate (dosage: […] in dosage volumes of 0.25, 0.5 and 1 ml, respectively) and leucoflavin phosphate (dosage: 2.5, 5 and 10 mg/kg in dosage volumes of 0.25, 0.5 and 1 ml, respectively) which had been dissolved in physiological saline and sterilized by filtration was administered intraperitoneally. The survival rate was determined 4 days after the administration. In the control group, 1.0 ml of physiological saline was administered intraperitoneally instead of the drugs. The determination of the medicinal efficacy was conducted by χ^2 test.

The mark [4] stands for this setting: 1.25 mg/kg i.p. 24 h before s.c. E. coli inoculation.
[5] abbreviates: 2.5 mg/kg i.p. 24 h before s.c. E. coli inoculation.
The mark [6] stands for this setting: 5 mg/kg i.p. 24 h before s.c. E. coli inoculation.
Where [7] appears, read: 10 mg/kg i.p. 24 h before s.c. E. coli inoculation.
Where [8] appears, read: 2.5 mg/kg i.p. 24 h before i.v. S. aureus.
Where [9] appears, read: 5 mg/kg i.p. 24 h before i.v. S. aureus.
The mark [10] stands for this setting: 10 mg/kg i.p. 24 h before i.v. S. aureus.
Where [11] appears, read: 2.5 mg/kg i.p. 6 h after LPS 15 mg/kg i.p.
The mark [12] stands for this setting: 5 mg/kg i.p. 6 h after LPS 15 mg/kg i.p.
The mark [13] stands for this setting: 10 mg/kg i.p. 6 h after LPS 15 mg/kg i.p.
Where [14] appears, read: 12.5 mg/kg i.p. 24 h before s.c. E. coli inoculation.
The mark [15] stands for this setting: 25 mg/kg i.p. 24 h before s.c. E. coli inoculation.
[16] abbreviates: 50 mg/kg i.p. 24 h before s.c. E. coli inoculation.
Where [17] appears, read: 100 mg/kg i.p. 24 h before s.c. E. coli inoculation.
Where [18] appears, read: 25 mg/kg i.p. 24 h before i.v. S. aureus.
[19] abbreviates: 50 mg/kg i.p. 24 h before i.v. S. aureus.
[20] abbreviates: 100 mg/kg i.p. 24 h before i.v. S. aureus.
The mark [21] stands for this setting: 20 mg/kg i.p. 6 h after LPS 15 mg/kg i.p.

With `Cc1cc2c(cc1C)N(C[C@H](O)[C@H](O)[C@H](O)COP(=O)(O)O)c1[nH]c(=O)[nH]c(=O)c1N2` [FMN-H2, leucoflavin phosphate], the survival number was determined as 0 in experiment [1] (setting [4]); 4 in experiment [1] (setting [5]); 6 in experiment [1] (setting [6]); 9 in experiment [1] (setting [7]); 3 in experiment [2] (setting [8]); 6 in experiment [2] (setting [9]). In addition, the survival number in experiment [2] (setting [10]) came out at 8; in experiment [3] (setting [11]) it was 2; in experiment [3] (setting [12]), 6; in experiment [3] (setting [13]) it was 8. In addition, the survival rate % stood at 10% in experiment [1] (setting [4]); 40% in experiment [1] (setting [5]); 60% in experiment [1] (setting [6]); 90% in experiment [1] (setting [7]); 30% in experiment [2] (setting [8]); 60% in experiment [2] (setting [9]). The survival rate % in experiment [2] (setting [10]) came to 80%; in experiment [3] (setting [11]), 20%; in experiment [3] (setting [12]) it was 60%; in experiment [3] (setting [13]), 80%. For the same compound, the “infection-protective effect against E. coli compared with riboflavin sodium phosphate” value in experiment [1] (mice, from Table 1) is reported as “about 10 fold”. Also, in experiment [2] (mice, from Table 2), the “infection-protective effect against Staphylococcus aureus compared with riboflavin sodium phosphate” value is given as “about 10 fold”. For the same compound, the “life-saving effect on endotoxin shock compared with riboflavin sodium phosphate” value in experiment [3] (mice, from Table 3) is “about 2 fold”.

Take `Cc1cc2nc3c(=O)[nH]c(=O)nc-3n(C[C@H](O)[C@H](O)[C@H](O)COP(=O)(O)O)c2cc1C` [VB2Na, riboflavin sodium phosphate, reference compound]: the survival number in experiment [1] (setting [14]) is 1; in experiment [1] (setting [15]) it was 3; in experiment [1] (setting [16]), 5; in experiment [1] (setting [17]) it was 9; in experiment [2] (setting [18]) it was 2; in experiment [2] (setting [19]), 4. Also, the survival number came out at 7 in experiment [2] (setting [20]), 3 in experiment [3] (setting [12]), 4 in experiment [3] (setting [13]) and 7 in experiment [3] (setting [21]). For the same compound, the survival rate % in experiment [1] (setting [14]) was determined as 10%; in experiment [1] (setting [15]), 30%; in experiment [1] (setting [16]) it was 50%; in experiment [1] (setting [17]), 90%; in experiment [2] (setting [18]), 20%; in experiment [2] (setting [19]), 40%. Moreover, the survival rate % in experiment [2] (setting [20]) turned out to be 70%; in experiment [3] (setting [12]) it was 30%; in experiment [3] (setting [13]), 40%; in experiment [3] (setting [21]), 70%.

The values above are taken from US7579325B2, “Drugs containing reduced of vitamin B2” (Eisai R & D Management Co., Ltd., priority 2001, dated 2009).
